One assay has as its system Myzus persicae. Nature of the assay: Aphid settling (choice test) on treated vs control leaves of Brassica rapa subsp. pekinensis. It is filed as in vivo. Particulars: for Mean number of aphids settled on treated (test) leaf: 0.1% solution in 70% ethanol, mean (± SD), n = 8, 20 aphids/replicate; for Effect on aphid settling behavior (deterrent / attractant): choice test, 0.1% solution, significance p < 0.05 Student t-test. The method, then:
The peach potato aphids Myzus persicae (Sulzer) and the Chinese cabbage Brassica rapa subsp. pekinensis (Lour.) Hanelt were reared in laboratory at 20 °C, 65% r.h., and L16:8D photoperiod. One to seven days old apterous females of M. persicae and 3-week old plants with 4–5 fully developed leaves were used for experiments. M. persicae were obtained from the laboratory culture maintained at the Department of Botany and Ecology for many generations since 2000. All experiments were carried out under the same conditions of temperature, relative humidity, and photoperiod. The bioassays were started at 10–11.a.m. Each compound was dissolved in 70% ethanol to obtain the recommended 0.1% solution[40]. All compounds were applied on the adaxial and abaxial leaf surfaces by immersing a leaf in the ethanolic solution of a given compound for 30 s.[20]. Control leaves of similar size were immersed in 70% ethanol that was used as a solvent for the studied compounds. Experiments were performed 1 h after the compounds application to allow the evaporation of the solvent. Every plant and aphid were used only once.
This bioassay allows the study of aphid host preferences under semi-natural conditions. In the present study, aphids were given free choice between control and treated excised leaves that were placed in a Petri dish. Aphids were placed in the dish equidistance from treated and untreated leaves, so that aphids could choose between treated (on one half of a Petri dish) and control leaves (on the other half of the dish). […] Each experiment was replicated 8 times (n = 8 replicates, 20 viviparous apterous females/replicate). Aphids that were moving or not on any of the leaves were not counted.
The data of the choice-test were analyzed using Student’s t-test (STATISTICA 13.1. package). […] If aphids settled mainly on the control leaf (p < 0.05), the compound tested in the respective choice-test was stated a deterrent. From the data thus obtained the relative index of deterrence (DI) was calculated: DI = (C − T/C + T) where C was the number of aphids settled on control leaf, T was the number of aphids settled on the leaf treated with the tested compound. The value of DI ranged between 1 (ideal deterrent) and − 1 (ideal attractant)[41].

The next assay concerns A549 cells. As to the kind of experiment: Antiproliferative activity, SRB assay. It is filed as cell-based, human. The note with it: for IC50: 72 h exposure, SRB, mean ± SD, n.a = no activity in concentration of 5, 25, 125, 625 μM; for Selectivity index SI, A549: SI = IC50 BALB/3T3 / IC50 A549. The method, then: (§1) Human biphenotypic B myelomonocytic leukemia MV4-11, human colon cancer LoVo cell line and normal mouse fibroblast BALB/3T3 cells were obtained from American Type Culture Collection (Rockville, Maryland, USA), human lung carcinoma A549 cells were obtained from European Collection of Authenticated Cell Cultures (UK). All the cell lines are being maintained at the Hirszfeld Institute of Immunology and Experimental Therapy, PAS, Wroclaw, Poland and were cultured according the procedure described before.
(§2) Cell lines were cultured according to the protocol described before. MV4-11 cells were cultured in RPMI 1640 medium (Gibco, UK) with 1.0 mM sodium pyruvate, and 10% fetal bovine serum (FBS) (all from Sigma-Aldrich, Germany). A549, LoVo and LoVo/DX cells were cultured in RPMI 1640 + Opti-MEM (1:1) (both from Gibco, UK) supplemented with 5% fetal bovine serum, 1.0 mM sodium pyruvate (LoVo and LoVo/DX cells) (all from Sigma Aldrich Germany) and 0.1 μg/mL doxorubicin chloride (Accord) (only LoVo/DX cells). BALB/3T3 cells in Dulbecco medium (IIET, Poland) supplemented with 10% fetal bovine serum (Sigma-Aldrich, Germany). All culture media were supplemented with 2 mM L-glutamine (Sigma-Aldrich, Germany), 100 units/mL penicillin, and 100 µg/mL streptomycin (both from Polfa Tarchomin S.A., Poland). All cell lines were grown at 37 °C with 5% CO2 humidified atmosphere.
(§3) The solutions of the compounds (50 mM) were prepared by dissolving the substances in DMSO (Sigma Aldrich, Germany). Then the tested compounds were diluted in culture medium to reach the final concentrations of 625, 125, 25 and 5 μM. Before adding of the tested compounds (24 h prior), the cells were plated in 96-well plates (Sarstedt, Germany) at a density of 1 × 10^4 or 0.5 × 10^4 (A549) cells per well. The assay was performed after 72 h of exposure to 625, 125, 25 and 5 μM of the tested agents. The in vitro cytotoxic effect of all agents was examined using the MTT (MV4-11) or SRB assay, described previously. The results were calculated as an IC50 (inhibitory concentration 50%) the concentration of tested agent, which is cytotoxic for 50% of the cancer cells. Each compound in each concentration was tested in triplicate in a single experiment, which was repeated 3–5 times.

A further assay concerns LoVo cells. Nature of the assay: Antiproliferative activity, SRB assay. It is filed as cell-based, human. Particulars: for IC50: 72 h exposure, SRB, mean ± SD, n.a = no activity in concentration of 5, 25, 125, 625 μM; for Selectivity index SI, LoVo: SI = IC50 BALB/3T3 / IC50 LoVo. As for the experimental part:
as §1, §2, §3

A further assay has as its system BALB/3T3 cells. Nature of the assay: Toxicity towards normal fibroblasts, SRB assay. It is filed as cell-based. Particulars: 72 h exposure, mean ± SD, n.a = no activity in concentration of 5, 25, 125, 625 μM. As for the experimental part:
as §1, §2, §3
In general terms: In SRB staining, fixed cells bind dye roughly in proportion to their protein.

In a further assay the test system is MV4-11 cells. As to the kind of experiment: Cell cycle analysis by flow cytometry (propidium iodide). The assay is classed as cell-based, human. Particulars: MV4-11, 75 µM, 72 h. As for the experimental part: Cell cycle analysis was carried out according to the procedure previously described. The MV4-11 cells were seeded at the density of 1 × 10^5 cells/well of culture medium on 24-well plates (Sarstedt, Germany) to the final volume of 2 mL and were exposed to the test compounds at concentrations 75 μM for 72 h. After incubation, the cells were collected and 1 × 10^6 of cells were washed twice in cold PBS and fixed for 24 h in 70% ethanol at − 20 °C. Then the cells were washed twice in PBS and incubated with RNAse (8 μg/mL, Fermentas, Germany) at 37 °C for 1 h. The cells were stained for 30 min. with propidium iodide (50 μg/mL, Sigma Aldrich, Germany) at 4 °C and the cellular DNA content was analyzed by flow cytometry using BD LSRFortessa cytometer (BD Bioscience, San Jose, USA). Compounds at each concentration were tested at least three times independently. Obtained results were analyzed using Flowing software 2 (Cell Imaging Core, Turku Centre for Biotechnology, University of Turku Åbo Akademi University).

Setting [1] is: BALB/3T3, normal mouse fibroblasts.

Turning to “3,7,11,15-tetramethylhexadec-2-en-1-ol [Phytol (1), reference compound]”, the entries for the “Mean number of aphids settled on treated (test) leaf” value (shortened to “Mean number of aphids settled”) in the assay on Myzus persicae (1 h after access), in the assay with Myzus persicae (2 h after access) and with Myzus persicae (24 h after access) were 10.4 (± 1.3), 7.9 (± 1.0) and 6.6 (± 0.9), respectively. In the assay with Myzus persicae, the “Effect on aphid settling behavior (deterrent / attractant)” value is “deterrent properties”. Moreover, the IC50 – broadly, the concentration that gives 50% inhibition – in the assay on A549 cells was 64.1 ± 5.2 µM; in the assay on LoVo cells, 255 ± 46.5 µM; with BALB/3T3 cells (normal mouse fibroblasts), 64.5 ± 12.9 µM. Moreover, the “Selectivity index SI, A549” value in the assay with A549 cells is listed as 1.01. The “Selectivity index SI, LoVo” value in the assay on LoVo cells came out at 0.25.

`CC(C)CCCC(C)CCCC(C)CCC[C@]1(C)CC(=O)O[C@@H]1CBr` (stereo in doubt) [compound 4, trans-5-Bromomethyl-4-methyl-4-(4′,8′,12′-trimethyltridecyl)dihydrofuran-2-one]: the “Mean number of aphids settled” value with Myzus persicae (1 h after access) is on record as 2.9 (± 0.7); in the assay on Myzus persicae (2 h after access), 2.4 (± 0.6); in the assay on Myzus persicae (24 h after access), 4.9 (± 1.7). Also, the IC50 in the assay with BALB/3T3 cells (setting [1]) came to 348 ± 27.6 µM. For the same molecule, the “Induced death of cells” value in the assay with MV4-11 cells was 20–30%.

For `CC(C)CCCC(C)CCCC(C)CCC[C@]1(C)CC(=O)O[C@H]1CBr` (stereo in doubt) [compound 5, cis-5-Bromomethyl-4-methyl-4-(4′,8′,12′-trimethyltridecyl)dihydrofuran-2-one], the “Mean number of aphids settled” value is reported as 3.4 (± 1.0) with Myzus persicae (1 h after access), 3.0 (± 1.1) in the assay with Myzus persicae (2 h after access) and 5.6 (± 1.4) with Myzus persicae (24 h after access). For the same molecule, the IC50 in the assay with BALB/3T3 cells (setting [1]) is 424 ± 140 µM. Also, the “Induced death of cells” value with MV4-11 cells was 20–30%.

On to `CC(C)CCCC(C)CCCC(C)CCC[C@]1(C)CC(=O)O[C@@H]1CCl` (stereo in doubt) [compound 6, trans-5-Chloromethyl-4-methyl-4-(4′,8′,12′-trimethyltridecyl)dihydrofuran-2-one], for which the “Mean number of aphids settled” value in the assay on Myzus persicae (1 h after access) is on record as 5.8 (± 1.3); with Myzus persicae (2 h after access), 4.5 (± 1.1); in the assay on Myzus persicae (24 h after access), 10.0 (± 1.7). In the assay on Myzus persicae, the “Effect on aphid settling behavior (deterrent / attractant)” value is listed as “attractant properties”. For the same molecule, the IC50 is 378 ± 32.8 µM with A549 cells (Homo sapiens, A549); 293 ± 33.1 µM in the assay with LoVo cells (Homo sapiens, LoVo); 273 ± 16.4 µM in the assay on BALB/3T3 cells (setting [1]). Further, in the assay on A549 cells, the “Selectivity index SI, A549” value is 0.72. In addition, the “Selectivity index SI, LoVo” value with LoVo cells is 0.93. Besides, the “Induced death of cells” value in the assay on MV4-11 cells is reported as 50%.

In the case of `CC(C)CCCC(C)CCCC(C)CCC[C@]1(C)CC(=O)O[C@H]1CCl` (stereo in doubt) [compound 7, cis-5-chloromethyl-4-methyl-4-(4′,8′,12′-trimethyltridecyl)dihydrofuran-2-one], the “Mean number of aphids settled” value with Myzus persicae (1 h after access) is given as 4.1 (± 1.0); in the assay on Myzus persicae (2 h after access), 3.5 (± 0.7); in the assay on Myzus persicae (24 h after access), 4.8 (± 0.9). The “Induced death of cells” value with MV4-11 cells is recorded as 20–30%.

Regarding `C=CC(C)(CCCC(C)CCCC(C)CCCC(C)C)CC(=O)O` (stereo not drawn) [compound 3, 3,7,11,15-tetramethyl-3-vinylhexadecanoic acid], the “Mean number of aphids settled” value in the assay on Myzus persicae (1 h after access) is 8.5 (± 2.1); in the assay on Myzus persicae (2 h after access), 8.9 (± 1.0); in the assay with Myzus persicae (24 h after access), 8.1 (± 1.3). Also, the IC50 in the assay with A549 cells (Homo sapiens, A549) stood at 49.5 ± 2.9 µM; in the assay on LoVo cells (Homo sapiens, LoVo), 59.5 ± 1.1 µM; in the assay with BALB/3T3 cells (setting [1]) it was 145 ± 48 µM. The “Selectivity index SI, A549” value in the assay with A549 cells amounted to 2.93. Moreover, the “Selectivity index SI, LoVo” value in the assay with LoVo cells was 2.44. The “Induced death of cells” value with MV4-11 cells was 50%.

These data come from paper PMC7896091, “Synthesis of novel phytol-derived γ-butyrolactones and evaluation of their biological activity” (Scientific Reports, 2021).
